Measured values published in US20250332266A1, “COMPOUNDS FOR THE DEGRADATION OF EGFR KINASE” (BeiGene Switzerland GmbH, priority 2022, published 2025).

Key:
[1] = molecular target: EGFR Del19/T790M/C797S (H1975-clone #28) (Homo sapiens, UniProt P00533, T790M/C797S, form not given); assay: EGFR degradation, HTRF total-EGFR assay, H1975-clone #28 (DTC); type: cell-based; conditions: H1975-clone #28 Del19/T790M/C797S, 16 h treatment
Description: (§1) H1975-clone #28 (Del19/T790M/C797S, or abbr: DTC), H1975-clone #23 (Del19/C797S, or abbr: DC), H1975-clone #25 (L858R/T790M/C797S, or abbr: LTC) and H1975-clone #8 (L858R/C797S, or abbr: LC). EGFR-Del19/T790M/C797S, EGFR-Del19/C797S, EGFR-L858R/T790M/C797S and EGFR-L858R/C797S were stably expressed in H1975 cell lines by lentivirus-mediated over-expression, respectively. The EGFR over-expressed cells then underwent knockout, in which the EGFR targeting sgRNA was designed to only target the endogenous EGFR copies and preserve the exogenous EGFR copies. Followed by the knockout, the edited H1975 cells were seeded in 96 well plates at the concentration of 1 cell/well, cultured for about 2 weeks to allow single clones formation. The formed clones were screened by DNA sequencing and whole exon sequencing analysis for the desired edition. H1975-clone #28, H1975-clone #23, H1975-clone #25 and H1975-clone #8 were finally confirmed as homozygous Del19/T790M/C797S EGFR, Del19/C797S EGFR, L858R/T790M/C797S EGFR and L858R/C797S EGFR clones, respectively.
(§2) H1975-#25, H1975-#28, H1975-#23 and H1975-#8 cells are treated with compounds diluted in 0.2% DMSO cell culture medium on day 2, incubate for 16 h, 37° C., 5% CO2. The final concentration of compounds in all assay is start with 10 μM, 5-fold dilution, total 8 doses were included.
(§3) Total-EGFR cellular kit(64NG1PEH) were used for evaluating EGFR degradation.
(§4) After 16 h treatment, add HTRF lysis buffer to each well; seal the plate and incubate 1 hour at room temperature on a plate shaker; Once the cells are lysed, 16 μL of cell lysate are transferred to a PE 384-well HTRF detection plate; 4 μL of pre-mixed HTRF antibodies are added to each well; cover the plate with a plate sealer, spin 1000 rpm for 1 min, incubate overnight at room temperature; read on BMG PheraStar with HTRF protocol (337 nm-665 nm-620 nm).
(§5) The inhibition (degradation) percentage of the compound was calculated by the following equation:
(§6) Inhibition percentage of Compound=100−100×(Signal−low control)/(High control−low control), wherein signal=each test compound group
(§7) High control=Cell group with added DMSO and without compound, indicating microplate readings without EGFR degradation.
(§8) Imax (Dmax) is the maximum percentage of inhibition (degradation).
(§9) The IC50 (DC50) value of a compound can be obtained by fitting the following equation
(§10) Wherein, X and Y are known values, and IC50, Hillslope, Top and Bottom are the parameters obtained by fitting with software. Y is the inhibition percentage (calculated from the equation), X is the concentration of the compound; IC50 is the concentration of the compound when the 50% inhibition is reached. The smaller the IC50 value is, the stronger the inhibitory ability of the compound is. Vice versa, the higher the IC50 value is, the weaker the ability the inhibitory ability of the compound is; Hillslope represents the slope of the fitted curve, generally around 1*; Bottom represents the minimum value of the curve obtained by data fitting, which is generally 0%±20%; Top represents the maximum value of the curve obtained by data fitting, which is generally 100%±20%. The experimental data were fitted by calculating and analyzing with Dotmatics data analysis software.

[2] = molecular target: T1, EGFR L858R/T790M/C797S (H1975-clone #25) (Homo sapiens, UniProt P00533, C797S/L858R/T790M); assay: EGFR degradation, HTRF total-EGFR assay, H1975-clone #25 (LTC); type: cell-based; conditions: H1975-clone #25 L858R/T790M/C797S, 16 h treatment
T1 construct: expressed in transfected cells; host or cells: H1975 (clone #25), lentiviral transduction, endogenous EGFR knocked out
Description: as §1, §2, §3, §4, §5, §6, §7, §8, §9, §10

Chain of EGFR Del19/T790M/C797S (H1975-clone #28) (P00533 with tags, fused parts or gaps DEL746-750/T790M/C797S, form open): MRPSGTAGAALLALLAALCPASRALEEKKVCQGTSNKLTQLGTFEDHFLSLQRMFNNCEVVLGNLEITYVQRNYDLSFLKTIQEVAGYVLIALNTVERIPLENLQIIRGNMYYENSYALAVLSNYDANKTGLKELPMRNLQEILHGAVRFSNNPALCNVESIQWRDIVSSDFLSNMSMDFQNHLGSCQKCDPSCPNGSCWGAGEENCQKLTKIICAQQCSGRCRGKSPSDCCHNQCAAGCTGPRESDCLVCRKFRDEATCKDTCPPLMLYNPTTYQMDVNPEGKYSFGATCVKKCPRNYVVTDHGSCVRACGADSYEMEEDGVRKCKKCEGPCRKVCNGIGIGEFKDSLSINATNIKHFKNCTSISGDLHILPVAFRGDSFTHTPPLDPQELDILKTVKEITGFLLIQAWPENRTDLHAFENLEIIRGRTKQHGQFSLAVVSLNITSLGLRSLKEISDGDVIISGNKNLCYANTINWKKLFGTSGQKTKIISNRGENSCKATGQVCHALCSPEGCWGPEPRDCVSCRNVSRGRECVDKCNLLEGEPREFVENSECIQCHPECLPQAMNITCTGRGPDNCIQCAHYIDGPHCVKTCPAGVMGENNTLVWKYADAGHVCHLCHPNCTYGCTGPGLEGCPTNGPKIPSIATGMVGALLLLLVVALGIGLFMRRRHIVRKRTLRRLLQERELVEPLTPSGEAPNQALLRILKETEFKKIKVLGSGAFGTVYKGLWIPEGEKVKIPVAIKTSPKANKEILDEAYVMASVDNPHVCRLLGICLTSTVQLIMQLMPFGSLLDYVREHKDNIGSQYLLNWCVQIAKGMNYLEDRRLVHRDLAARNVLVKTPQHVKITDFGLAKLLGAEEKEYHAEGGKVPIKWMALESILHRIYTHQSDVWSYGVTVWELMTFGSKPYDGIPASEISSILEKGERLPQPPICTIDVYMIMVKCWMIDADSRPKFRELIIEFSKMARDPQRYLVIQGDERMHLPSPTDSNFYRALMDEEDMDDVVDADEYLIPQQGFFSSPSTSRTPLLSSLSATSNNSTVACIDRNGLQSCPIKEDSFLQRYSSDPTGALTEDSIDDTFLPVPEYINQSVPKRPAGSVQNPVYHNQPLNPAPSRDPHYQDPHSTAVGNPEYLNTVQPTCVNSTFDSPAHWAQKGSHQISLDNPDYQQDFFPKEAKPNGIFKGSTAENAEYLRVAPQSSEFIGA
T1 sequence (P00533 25-1210 T790M/C797S/L858R): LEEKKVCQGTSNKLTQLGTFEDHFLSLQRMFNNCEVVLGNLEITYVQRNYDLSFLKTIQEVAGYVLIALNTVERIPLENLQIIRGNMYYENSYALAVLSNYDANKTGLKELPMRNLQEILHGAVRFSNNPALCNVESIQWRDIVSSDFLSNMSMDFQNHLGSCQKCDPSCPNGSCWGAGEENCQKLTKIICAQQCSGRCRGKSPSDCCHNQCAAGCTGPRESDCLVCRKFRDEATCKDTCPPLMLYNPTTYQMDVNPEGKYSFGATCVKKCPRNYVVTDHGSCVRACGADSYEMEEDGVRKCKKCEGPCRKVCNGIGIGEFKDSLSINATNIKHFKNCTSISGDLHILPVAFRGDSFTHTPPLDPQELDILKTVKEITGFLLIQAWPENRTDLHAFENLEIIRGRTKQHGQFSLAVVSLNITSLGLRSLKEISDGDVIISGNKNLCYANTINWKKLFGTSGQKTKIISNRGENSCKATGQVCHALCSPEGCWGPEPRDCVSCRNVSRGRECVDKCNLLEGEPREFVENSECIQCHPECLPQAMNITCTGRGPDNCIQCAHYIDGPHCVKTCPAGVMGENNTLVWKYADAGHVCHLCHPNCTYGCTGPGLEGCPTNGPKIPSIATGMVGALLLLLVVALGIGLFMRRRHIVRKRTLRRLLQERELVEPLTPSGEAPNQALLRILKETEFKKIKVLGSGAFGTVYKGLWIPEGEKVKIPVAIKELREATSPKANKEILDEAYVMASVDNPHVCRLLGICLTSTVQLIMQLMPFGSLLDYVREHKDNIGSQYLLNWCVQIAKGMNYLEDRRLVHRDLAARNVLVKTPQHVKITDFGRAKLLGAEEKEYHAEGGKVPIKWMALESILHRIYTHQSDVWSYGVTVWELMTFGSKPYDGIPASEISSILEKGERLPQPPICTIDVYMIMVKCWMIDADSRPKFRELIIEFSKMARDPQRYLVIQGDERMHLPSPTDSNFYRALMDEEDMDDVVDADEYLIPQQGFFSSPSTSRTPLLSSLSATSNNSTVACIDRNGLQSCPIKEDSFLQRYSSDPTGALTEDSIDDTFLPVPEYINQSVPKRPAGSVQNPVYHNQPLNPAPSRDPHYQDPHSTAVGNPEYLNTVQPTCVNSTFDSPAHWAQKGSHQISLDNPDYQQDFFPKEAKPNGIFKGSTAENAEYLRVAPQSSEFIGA

Structure (SMILES)	Degradation H1975 # 28 DTC [1]	Degradation H1975 # 25-LTC [2]
Cc1cc2cc(n1)-c1cnn(C)c1OC[C@H]1C[C@@H](CN3/C(=N/C2=O)Nc2ccc(N4CCN(C5CCN(c6cc(F)c([C@H]7CCC(=O)NC7=O)c(F)c6)CC5)C(=O)C4)cc23)C1 [Example 25, (R)-3-(4-(4-(4-((7^1s,7^3s,E)-1^1,2^6-dimethyl-3-oxo-5^2,5^3-dihydro-1^1H,5^1H-9-oxa-4-aza-5(2,1)-benzo[d]imidazola-2(2,4)-pyridina-1(4,5)-pyrazola-7(1,3)-cyclobutanacyclononaphane-5^6-yl)-2-oxopiperazin-1-yl)piperidin-1-yl)-2,6-difluorophenyl)piperine-2,6-dione]	89.9	83.4
Cc1cc2cc(n1)-c1cnn(C)c1OC[C@H]1C[C@@H](CN3/C(=N/C2=O)Nc2ccc(N4CCN(C5CCN(c6ccc(C7CCC(=O)NC7=O)nc6C)CC5)C(=O)C4)cc23)C1 (stereo partly shown) [Example 26, 3-(5-(4-(4-((7^1s,7^3s,E)-1^1,2^6-dimethyl-3-oxo-5^2,5^3-dihydro-1^1H,5^1H-9-oxa-4-aza-5(2,1)-benzo[d]imidazola-2(2,4)-pyridina-1(4,5)-pyrazola-7(1,3)-cyclobutanacyclononaphane-5^6-yl)-2-oxopiperazin-1-yl)piperidin-1-yl)-6-methylpyridin-2-yl)piperidine-2,6-dione]	90.8	92.1
COC[C@H]1CN(c2ccc3c(c2)N2C[C@H]4C[C@@H](COc5c(cnn5C)-c5cc(cc(C)n5)C(=O)/N=C/2N3)C4)CCN1C1CCN(c2cc(F)c([C@H]3CCC(=O)NC3=O)c(F)c2)CC1 [Example 27, (R)-3-(4-(4-((R)-4-((7^1s,7^3S,E)-1^1,2^6-dimethyl-3-oxo-5^2,5^3-dihydro-1^1H,5^1H-9-oxa-4-aza-5(2,1)-benzo[d]imidazola-2(2,4)-pyridina-1(4,5)-pyrazola-7(1,3)-cyclobutanacyclononaphane-5^6-yl)-2-(methoxymethyl)piperazin-1-yl)piperidin-1-yl)-2,6-difluorophenyl)piperidine-2,6-dione]	84.7	89.6
Cc1cc2cc(n1)-c1cnn(C)c1OC[C@H]1C[C@@H](CN3/C(=N/C2=O)Nc2ccc(N4CCC(N5CCN(c6ccc(C7CCC(=O)NC7=O)nc6C)CC5)CC4)cc23)C1 (stereo partly shown) [Example 28, 3-(5-(4-(1-((7^1s,7^3s,E)-1^1,2^6-dimethyl-3-oxo-5^2,5^3-dihydro-1^1H,5^1H-9-oxa-4-aza-5(2,1)-benzo[d]imidazola-2(2,4)-pyridina-1(4,5)-pyrazola-7(1,3)-cyclobutanacyclononaphane-5^6-yl)piperidin-4-yl)piperazin-1-yl)-6-methylpyridin-2-yl)piperidine-2,6-dione]	79.8	92.1
Cc1cc2cc(n1)-c1cnn(C)c1OC[C@H]1C[C@@H](CN3/C(=N/C2=O)Nc2ccc(N4CCN(C5CN(c6cc(F)c([C@H]7CCC(=O)NC7=O)c(F)c6)C5)CC4)cc23)C1 [Example 29, (R)-3-(4-(3-(4-((7^1s,7^3s,E)-1^1,2^6-dimethyl-3-oxo-5^2,5^3-dihydro-1^1H,5^1H-9-oxa-4-aza-5(2,1)-benzo[d]imidazola-2(2,4)-pyridina-1(4,5)-pyrazola-7(1,3)-cyclobutanacyclononaphane-5^6-yl)piperazin-1-yl)azetidin-1-yl)-2,6-difluorophenyl)piperidine-2,6-dione]	78.3	42.6

Other lines, results leading:

Degradation H1975 # 28 DTC [1]	Degradation H1975 # 25-LTC [2]	Structure (SMILES)
84.4	90.3	Cc1cc2cc(n1)-c1cnn(C)c1OC[C@H]1C[C@@H](CN3/C(=N/C2=O)Nc2ccc(N4CCN(C5CCN(c6cc(F)c([C@H]7CCC(=O)NC7=O)c(F)c6)CC5)[C@H](CO)C4)cc23)C1 [Example 30, (R)-3-(4-(4-((S)-4-((7^1s,7^3R,E)-1^1,2^6-dimethyl-3-oxo-5^2,5^3-dihydro-1^1H,5^1H-9-oxa-4-aza-5(2,1)-benzo[d]imidazola-2(2,4)-pyridina-1(4,5)-pyrazola-7(1,3)-cyclobutanacyclononaphane-5^6-yl)-2-(hydroxymethyl)piperazin-1-yl)piperidin-1-yl)-2,6-difluorophenyl)piperidine-2,6-dione]
84.2	90.5	Cc1cc2cc(n1)-c1cnn(C)c1OC[C@H]1C[C@@H](CN3/C(=N/C2=O)Nc2ccc(N4CCN(C5CCN(c6cc(F)c([C@H]7CCC(=O)NC7=O)c(F)c6)CC5)[C@@H](CO)C4)cc23)C1 [Example 31, (R)-3-(4-(4-((R)-4-((7^1s,7^3S,E)-1^1,2^6-dimethyl-3-oxo-5^2,5^3-dihydro-1^1H,5^1H-9-oxa-4-aza-5(2,1)-benzo[d]imidazola-2(2,4)-pyridina-1(4,5)-pyrazola-7(1,3)-cyclobutanacyclononaphane-5^6-yl)-2-(hydroxymethyl)piperazin-1-yl)piperidin-1-yl)-2,6-difluorophenyl)piperidine-2,6-dione]
88.8	88.8	Cc1cc2cc(n1)-c1cnn(C)c1OC[C@H]1C[C@@H](CN3/C(=N/C2=O)Nc2ccc(N4CCN(C5CCN(c6cnc([C@H]7CCC(=O)NC7=O)cc6C)CC5)C[C@@H]4C)cc23)C1 [Example 32, 3-(5-(4-((S)-4-((7^1s,7^3R,E)-1^1,2^6-dimethyl-3-oxo-5^1,5^3-dihydro-1^1H,5^1H-9-oxa-4-aza-5(2,1)-benzo[d]imidazola-2(2,4)-pyridina-1(4,5)-pyrazola-7(1,3)-cyclobutanacyclononaphane-5^6-yl)-3-methylpiperazin-1-yl)piperidin-1-yl)-4-methylpyridin-2-yl)piperidine-2,6-dione]
89.4	93.3	Cc1cc2cc(n1)-c1cnn(C)c1OC[C@H]1C[C@@H](CN3/C(=N/C2=O)Nc2ccc(N4CCN(C5CCN(c6ccc(C7CCC(=O)NC7=O)nc6C)CC5)C[C@@H]4C)cc23)C1 (stereo partly drawn) [Example 33, 3-(5-(4-((S)-4-((7^1s,7^3R,E)-1^1,2^6-dimethyl-3-oxo-5^2,5^3-dihydro-1^1H,5^1H-9-oxa-4-aza-5(2,1)-benzo[d]imidazola-2(2,4)-pyridina-1(4,5)-pyrazola-7(1,3)-cyclobutanacyclononaphane-5^6-yl)-3-methylpiperazin-1-yl)piperidin-1-yl)-6-methylpyridin-2-yl)piperidine-2,6-dione]
89.6	93.3	Cc1cc2cc(n1)-c1cnn(C)c1OC[C@H]1C[C@@H](CN3/C(=N/C2=O)Nc2ccc(N4CCN(C5CCN(c6ccc(C7CCC(=O)NC7=O)nc6C)CC5)C[C@H]4C)cc23)C1 (stereo partly drawn) [Example 34, 3-(5-(4-((R)-4-((7^1s,7^3S,E)-1^1,2^6-dimethyl-3-oxo-5^2,5^3-dihydro-1^1H,5^1H-9-oxa-4-aza-5(2,1)-benzo[d]imidazola-2(2,4)-pyridina-1(4,5)-pyrazola-7(1,3)-cyclobutanacyclononaphane-5^6-yl)-3-methylpiperazin-1-yl)piperidin-1-yl)-6-methylpyridin-2-yl)piperidine-2,6-dione]
72.9	85.9	Cc1cc2cc(n1)-c1cnn(C)c1OC[C@H]1C[C@@H](CN3/C(=N/C2=O)Nc2ccc(N4CCN(C5CCN(c6ccc(C7CCC(=O)NC7=O)nc6)CC5)C(=O)C4)cc23)C1 (stereo partly shown) [Example 35, 3-(5-(4-(4-((7^1s,7^3s,E)-1^1,2^6-dimethyl-3-oxo-5^2,5^3-dihydro-1^1H,5^1H-9-oxa-4-aza-5(2,1)-benzo[d]imidazola-2(2,4)-pyridina-1(4,5)-pyrazola-7(1,3)-cyclobutanacyclononaphane-5^6-yl)-2-oxopiperazin-1-yl)piperidin-1-yl)pyridin-2-yl)piperidine-2,6-dione]
